Results as given in patent US7956041B2, “Prophylactic and therapeutic agent of diabetes mellitus” (Ajinomoto Co., Inc., priority 2002, dated 2011).

What was measured:
[1] = test system: glucose-loaded mice (KK mice); assay: Example II: blood glucose time course after oral glucose loading in KK mice; format: in vivo, mouse; details: glucose 1 g/kg p.o., FIG. 3; for Blood glucose 30 minutes after glucose loading / Blood glucose 60 minutes after glucose loading / Blood glucose 2 hours after glucose loading and thereafter: metformin 200 mg/kg, inhibitor A 30 mg/kg p.o., vs control; for Pattern of glycemic suppression at elevated dose: metformin 300 mg/kg, inhibitor A 45 mg/kg
Procedure: KK mice (age of 25 weeks; male) fed with a commercially available high-calories feed for breeding (CMF; Oriental Yeast) were divided into groups with matched body weights. After starvation for 17 hours, glucose was orally given at 1 g/kg. Immediately thereafter, the inhibitor A of renal glucose reabsorption (30 mg/kg or 45 mg/kg) or metformin (200 mg/kg or 300 mg/kg) was orally given. Additionally, a group given with the inhibitor A of renal glucose reabsorption (30 mg/kg) and metformin (200 mg/kg) was prepared. A vehicle was orally given to a control group after glucose dosing.
Blood glucose level was assayed in a time course.

[2] = test system: Type 2 diabetic model GK rats; assay: Example III: blood glucose on day 25 of once daily dosing in GK rats; format: in vivo, rat; details: once daily p.o., FIG. 4
Procedure: Type 2 diabetic model GK rats (age of 7 weeks; male) were divided into groups with matched blood glucose levels and body weights, for once daily oral administration of the inhibitor A of renal glucose reabsorption (30 mg/kg) or glibenclamide at 3 or 6 mg/kg. Further, a group given with a combination of the inhibitor A of renal glucose reabsorption at 30 mg/kg and glibenclamide at 3 mg/kg was prepared. These agents were orally given once daily at the same time period as in the group administered with a single one agent. Only a vehicle was given orally to a control group. On day 25 after the start of administration, blood glucose was assayed sequentially, to compare the groups in terms of the resulting blood glucose levels.

[3] = test system: glucose-loaded rats (Wistar rats); assay: Example I: blood glucose time course after oral glucose loading in rats; format: in vivo, rat; details: glucose 1 g/kg p.o.
Procedure: Wistar rats (age of 7 weeks; male) were divided into groups with matched body weights. After 17-hour starvation, glucose was orally given at 1 g/kg to the animals. Immediately after the administration, the inhibitor A of renal glucose reabsorption or the inhibitor B of renal glucose reabsorption (A at 30 mg/kg or 60 mg/kg; B at 30 mg/kg or 80 mg/kg) or glibenclamide (1 mg/kg or 2 mg/kg) or nateglinide (50 mg/kg or 80 mg/kg) was orally given. Additionally, a group on the combined use of both of an inhibitor of renal glucose reabsorption and a hypoglycemic agent was also prepared. A vehicle was orally given to a control group after glucose administration.
Blood glucose was measured in a time course.

[4] = test system: Type 2 diabetes model Zucker diabetic fatty rats; assay: Example V: insulin content in pancreas of Zucker diabetic fatty rats (ELISA); format: in vivo, rat; details: twice daily p.o., day 39, starved 18 h, inhibitor A 30 mg/kg and/or metformin 200 mg/kg, FIG. 5
Procedure: Type 2 diabetes model Zucker diabetic fatty rats (age 15 weeks) were divided into groups with matched blood glucose levels and body weights. Subsequently, the inhibitor A of renal glucose reabsorption at 30 mg/kg or metformin at 200 mg/kg was orally given twice daily. Further, a group to be on a combined use of the inhibitor A of renal glucose reabsorption (30 mg/kg) and metformin (200 mg/kg) was prepared. The agents were orally given twice daily at the same time period as in the case of the groups administered with a single one of these agents. Only a vehicle was orally given twice daily to the animals in a control group. On day 39 from the start of administration, the animals were starved for 18 hours. Then, pancreas was resected from the animals, for the assay of insulin in pancreas homogenates by ELISA, to compare the groups in terms of insulin content in pancreas.
Zucker diabetic fatty rat is a type 2 diabetic model animal, where the sustainment of hyperglycemic conditions induces a high concentration of glycated hemoglobin so that the aging of the model animal involves the decrease of the insulin content in pancreas.

[5] = test system: Type 2 diabetes model db/db mice; assay: Example IV: nateglinide load test after 25 days of dosing in db/db mice; format: in vivo, mouse; details: db/db mice after long-term inhibitor B 80 mg/kg twice daily; compared with vehicle-dosed and nateglinide-dosed groups
Procedure: Type 2 diabetes model db/db mice (age 6 weeks) were fed and kept with a feed twice daily over one hour starting 9 am and one hour starting 3 pm, for one week. Then, the mice were divided into groups with matched blood glucose levels and body weights. Subsequently, the inhibitor B of renal glucose reabsorption at 80 mg/kg or nateglinide at 80 mg/kg was orally given, immediately before feeding twice daily. Only a vehicle was orally given immediately before feeding twice daily to the animals of a control group. […] Blood glucose levels were measured before and after the administration, to examine whether or not the hypoglycemic action of nateglinide could be observed (nateglinide load test).

Male Wistar rats [6] = assay: Test Example 1B: excretion action of urine sugar in rat; format: in vivo; details: oral administration, 24 hours
Procedure: Male Wistar rats aged 5 weeks (purchased from Charles River Japan, Inc.) were acclimatized in metabolic cages for one week, for use at this experiment. The test compounds suspended in olive oil were prepared into solutions to a dose of 5 ml per 1 kg rat body weight. After the rats were starved for 4 hours, the test compounds were orally given at 10, 30 and 100 mg/kg to the rats at 11 am. Immediately after dosing until 24 hours later, urine was collected. The volume of urine was measured. Then, urine glucose concentration was assayed by glucose oxidase method, to calculate the glucose excretion into urine per individual per day. As a positive control, 3-(5-benzo[b]furanyl)-2′-(6-o-methoxycarbonyl-β-D-glucopyranosyloxy)-6′-hydroxy-4′-methylpropiophenone [under a different name of 3-(benzo[b]furan-5-yl)-2′,6′-dihydroxy-4′-methylpropiophenone 2′-o-(6-o-methoxycarbonyl-β-D-glucopyranoside)] was used.

[7] = test system: Renal brush border membrane; assay: Test Example 1A: inhibitory action of 14C-D-glucose uptake; format: biochemical; details: rat renal brush border membrane, 37° C., 30 minutes preincubation
Procedure: Test compounds were dissolved in 100 mM mannitol-10 mM HEPES/Tris, pH 7.4 to prepare solutions at various concentrations.
Renal brush border membrane was prepared from a rat kidney, to which a solution of a test compound was added for incubation at 37° C. for 30 minutes. Then, ^14C-D-glucose was added for incubation for one minute. A solution containing 1 mM phlorizin was used to terminate the glucose uptake reaction. The radioactivity ^14C of ^14C-D-glucose incorporated in the renal brush border membrane was counted with a liquid scintillation counter. The glucose uptake independent on sodium was reduced from the glucose uptake in a control group or a test group, to calculate the inhibition intensity.

Male Wistar rats [8] = assay: Test Example 1: evaluation of urine sugar excretion action in rats; format: in vivo, rat; details: 100 mg/kg p.o. in olive oil, urine collected 24 hours, per individual per day
Procedure: Male Wistar rats aged 5 weeks (purchased from Charles River Japan, Inc.) were acclimatized in metabolic cages for one week, for use at this experiment. The test compounds suspended in olive oil were prepared into a 20 mg/ml solution to a dose of 5 ml per 1 kg rat body weight.
After the rats were starved for 4 hours, the test compounds were orally given at 100 mg/kg to the rats at 11 am. Immediately after dosing until 24 hours later, urine was collected. The volume of urine was measured. Then, urine sugar concentration was assayed by glucose oxidase method, to calculate the glucose excretion into urine per individual per day.

[9] = glibenclamide 3 mg/kg and/or inhibitor A 30 mg/kg
[10] = glibenclamide 1 mg/kg and/or inhibitor A 30 mg/kg p.o., vs vehicle, FIG. 1
[11] = glibenclamide 2 mg/kg, inhibitor A 60 mg/kg, FIG. 1

Compound: CCc1ccc(Cc2c(O[C@@H]3O[C@H](CO)[C@@H](O)[C@H](O)[C@H]3O)nn(C3CCC3)c2C(F)(F)F)cc1 [1′-cyclobutyl-4′-[(4-ethylphenyl)methyl]-5′-trifluoromethyl-1H-pyrazole-3′-o-β-D-glucopyranoside]
- Blood glucose 30 minutes after glucose loading [1]: could suppress hyperglycemia 30 minutes and 60 minutes after glucose loading
- Blood glucose 60 minutes after glucose loading [1]: could suppress hyperglycemia 30 minutes and 60 minutes after glucose loading
- Blood glucose 2 hours after glucose loading and thereafter [1]: could not suppress the blood glucose level 2 hours later and thereafter
- Pattern of glycemic suppression at elevated dose [1]: the pattern of glycemic suppression did not change even when the dose was elevated
- Blood glucose level on day 25 [2, 9]: significantly lowered, compared with the group given the vehicle
- Blood glucose immediately after glucose loading (30 minutes) [3, 10]: suppressed hyperglycemia observed in the vehicle group immediately after glucose loading
- Pattern of glycemic suppression at increased dose [3, 11]: The pattern of glycemic suppression did not change even when the dose was elevated
- Insulin content in pancreas [4]: no difference was observed in insulin content in spleen

Compound: COC(=O)OC[C@H]1O[C@@H](Oc2cc(C)cc(O)c2C(=O)CCc2ccc3occc3c2)[C@H](O)[C@@H](O)[C@@H]1O [3-(5-benzo[b]furanyl)-2′-(6-o-methoxycarbonyl-β-D-glucopyranosyloxy)-6′-hydroxy-4′-methylpropiophenone]
- Hyperglycemia 30 minutes after loading with glucose and nateglinide (in words) [5]: nateglinide greatly suppressed hyperglycemia due to glucose loading
- Excreted urine sugar (Male Wistar rats [6]; Dose 10 mg/kg): 2 mg
- Blood glucose 180 minutes after glucose loading and thereafter ([3]; inhibitor B 30 mg/kg alone or with nateglinide 50 mg/kg p.o., vs vehicle, FIG. 2): lower than that in the vehicle-dosed group
- Pattern of glycemic suppression at increased dose ([3]; nateglinide 80 mg/kg, inhibitor B 80 mg/kg, FIG. 2): This pattern of glycemic suppression was also observed in the group with the increase of the dose

Compound: CSc1ccc(Cc2c(O[C@@H]3O[C@H](CO)[C@@H](O)[C@H](O)[C@H]3O)n[nH]c2C(F)(F)F)cc1 [Production Example 1-A, 4-((4-methylthiophenyl)methyl)-5-(trifluoromethyl)-1H-pyrazole-3-o-β-D-glucopyranoside]
- Inhibition intensity ([7]; concentration of test compound 10 μM): 84% (10 μM)

Compound: CCc1ccc(Cc2c(OC3OC(COC(=O)OC)C(O)C(O)C3O)nn(C3CCC3)c2C(F)(F)F)cc1 [Production Example 2, 1′-cyclobutyl-4′-[(4-ethylphenyl)methyl]-5′-trifluoromethyl-1H-pyrazole-3′-o-(6-carbomethoxy)-β-D-glucopyranoside]
- Urine sugar excretion (Male Wistar rats [8]): 656 mg

Compound: CCc1ccc(Cc2c(O[C@@H]3O[C@H](C(=O)O)[C@@H](O)[C@H](O)[C@H]3O)n[nH]c2C(F)(F)F)cc1 [Production Example 2-A, 4-((4-ethylphenyl)methyl)-5-(trifluoromethyl)-1H-pyrazol-3-yl-β-D-glucopyranoside uronic acid]
- Inhibition intensity ([7]; concentration of test compound 100 μM): 30% (100 μM)

Compound: CCc1ccc(Cc2c(OC3OC(COC(=O)OC)C(O)C(O)C3O)nn(C(CF)CF)c2C(F)(F)F)cc1 [Production Example 2B, 4′-[(4′-ethylphenyl)methyl]-1′-(1′,3′-difluoro-2′-propyl)-5′-(trifluoromethyl)-1H-pyrazole-3′-o-(6-o-methoxycarbonyl-β-D-glucopyranoside)]
- Excreted urine sugar (Male Wistar rats [6]; Dose 10 mg/kg): 136 mg
- Excreted urine sugar (Male Wistar rats [6]; Dose 30 mg/kg): 272 mg
- Excreted urine sugar (Male Wistar rats [6]; Dose 100 mg/kg): 524 mg

Compound: CCc1ccc(Cc2c(OC3OC(COC(=O)OC)C(O)C(O)C3O)nn(C3CCCC3)c2C(F)(F)F)cc1 [Production Example 4, 1′-cyclopentyl-4′-[(4-ethylphenyl)methyl]-5′-trifluoromethyl-1H-pyrazole-3′-o-(6-carbomethoxy)-β-D-glucopyranoside]
- Urine sugar excretion (Male Wistar rats [8]): 452 mg

Compound: COc1ccc(Cl)cc1C(=O)NCCc1ccc(S(=O)(=O)NC(=O)NC2CCCCC2)cc1 [glibenclamide]
- Blood glucose level on day 25 [2, 9]: no difference was observed from the vehicle-dosed group in terms of the blood glucose levels
- Blood glucose level on day 25 ([2]; glibenclamide 6 mg/kg): did not produce any difference in blood glucose level from the vehicle-dosed group
- Blood glucose 120 minutes after glucose loading and thereafter [3, 10]: lowered blood glucose 120 minutes after glucose loading and thereafter
- Blood glucose immediately after glucose loading (30 minutes) [3, 10]: did not suppress hyperglycemia immediately after glucose loading
- Pattern of glycemic suppression at increased dose [3, 11]: did not change changed the pattern of glycemic suppression

Compound: CN(C)C(=N)N=C(N)N [metformin, reference compound]
- Blood glucose 30 minutes after glucose loading [1]: did not suppress the increase of blood glucose in the mice 30 minutes after glucose loading
- Blood glucose 60 minutes after glucose loading [1]: suppressed the increase 60 minutes later and thereafter
- Blood glucose 2 hours after glucose loading and thereafter [1]: suppressed the increase 60 minutes later and thereafter
- Pattern of glycemic suppression at elevated dose [1]: The pattern of glycemic suppression did not change even when the dose was elevated
- Insulin content in pancreas [4]: no difference was observed in insulin content in spleen
